Target: T1, ALK (Homo sapiens, UniProt Q9UM73)
T1 construct: purchased Thermo Fisher Scientific (Life Technologies) SelectScreen
Experiment: SelectScreen Z'LYTE
Assay type: biochemical
Procedure, shortened: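 NU5455 was profiled across the SelectScreen Broad panel of kinase activity and binding assays. Z'LYTE reactions such as CSF1R ran at apparent Km ATP, while the Adapta CAMK1 assay used ATP listed as 10. Values are given as percent.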

T1 sequence (Q9UM73 19-1620): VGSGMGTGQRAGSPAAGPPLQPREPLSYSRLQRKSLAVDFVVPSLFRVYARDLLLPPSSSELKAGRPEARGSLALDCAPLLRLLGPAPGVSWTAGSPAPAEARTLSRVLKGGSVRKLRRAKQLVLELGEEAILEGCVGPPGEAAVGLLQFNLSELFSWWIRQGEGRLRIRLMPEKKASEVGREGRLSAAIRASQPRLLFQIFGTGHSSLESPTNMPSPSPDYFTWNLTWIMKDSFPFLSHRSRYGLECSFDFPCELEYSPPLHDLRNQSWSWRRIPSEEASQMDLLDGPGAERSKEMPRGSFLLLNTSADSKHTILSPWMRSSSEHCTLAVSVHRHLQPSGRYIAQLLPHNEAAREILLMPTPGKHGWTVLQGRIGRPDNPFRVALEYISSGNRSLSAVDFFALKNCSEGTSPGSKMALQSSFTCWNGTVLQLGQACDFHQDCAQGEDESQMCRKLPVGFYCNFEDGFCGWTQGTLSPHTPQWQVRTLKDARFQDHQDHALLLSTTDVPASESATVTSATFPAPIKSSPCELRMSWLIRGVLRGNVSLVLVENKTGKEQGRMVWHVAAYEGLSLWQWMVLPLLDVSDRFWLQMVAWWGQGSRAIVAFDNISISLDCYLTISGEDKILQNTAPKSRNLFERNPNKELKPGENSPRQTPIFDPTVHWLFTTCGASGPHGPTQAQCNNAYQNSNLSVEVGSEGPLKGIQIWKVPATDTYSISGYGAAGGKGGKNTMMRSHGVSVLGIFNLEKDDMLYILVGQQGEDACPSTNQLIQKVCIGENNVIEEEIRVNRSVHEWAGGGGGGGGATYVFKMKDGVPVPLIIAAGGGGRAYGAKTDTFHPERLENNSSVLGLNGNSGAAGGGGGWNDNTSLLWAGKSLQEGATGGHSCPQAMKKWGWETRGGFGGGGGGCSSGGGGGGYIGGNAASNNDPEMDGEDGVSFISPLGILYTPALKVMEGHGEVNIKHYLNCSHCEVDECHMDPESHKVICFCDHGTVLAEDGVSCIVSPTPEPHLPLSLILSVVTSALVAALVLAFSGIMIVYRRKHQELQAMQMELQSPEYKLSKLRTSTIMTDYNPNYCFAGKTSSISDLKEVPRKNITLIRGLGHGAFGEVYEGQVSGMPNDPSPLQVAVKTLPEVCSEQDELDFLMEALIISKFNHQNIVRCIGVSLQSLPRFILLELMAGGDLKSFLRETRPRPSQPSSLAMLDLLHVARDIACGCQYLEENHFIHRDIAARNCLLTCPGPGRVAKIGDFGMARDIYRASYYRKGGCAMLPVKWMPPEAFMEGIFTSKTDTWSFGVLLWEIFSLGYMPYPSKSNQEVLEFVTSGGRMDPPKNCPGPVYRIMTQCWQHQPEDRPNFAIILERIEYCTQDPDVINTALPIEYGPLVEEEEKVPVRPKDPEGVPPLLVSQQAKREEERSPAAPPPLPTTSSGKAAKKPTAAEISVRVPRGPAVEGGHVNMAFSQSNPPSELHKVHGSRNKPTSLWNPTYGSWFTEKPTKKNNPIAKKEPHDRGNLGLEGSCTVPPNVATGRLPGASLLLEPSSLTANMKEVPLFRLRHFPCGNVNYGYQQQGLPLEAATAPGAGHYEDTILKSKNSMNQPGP

CN(C(=O)CN1CCOCC1)c1ccc2sc3c(-c4cccc5c(=O)cc(N6CC7CCC(C6)O7)oc45)cccc3c2c1 [NU5455]
inhibition at 1 µM: 17.3%

Reference: article PMC6934184, “Selective DNA-PKcs inhibition extends the therapeutic index of localized radiotherapy and chemotherapy” (The Journal of Clinical Investigation, 2019)
